# System: Type 1 herpes virus
# Test: Another mouse study with neat ester (Example 4), treatment from 24 hours post-virus inoculum
# Type: in vivo, mice
# Settings: neat composition applied 24 hours post-virus inoculum, 3 times daily for 5 days
# Description: Each lesion was assigned a score ranging from 0 (normal skin) to 4 (maximal lesion intensity) defined as “Lesion score”, and two measurements, a vertical length and a horizontal length, were taken of each lesion daily from days 1 through 10. These measurements were multiplied together and the “square area” recorded, defined as “Lesion Size”. The lesion scoring was done by technicians who are unaware of which group of animals they are examining in order to eliminate bias. The occurrence of new, satellite, lesions (e.g., another lesion located anywhere other than the site of the intial lesion) were also noted during this 10-day period. The mean of the lesions score and the lesions size was calculated based on the average of the measurements taken on the eight mice.
# Another mouse study was performed using propylene glycol monolaurate (Capmul PG-12) in a neat composition. The ester was applied 24 hours post-virus inoculum 3 times daily for 5 days. […] The mean day 7 lesion size was 3.1 mm2 compared to 64.4 mm2 for petrolatum vehicle control. The day 7 mean lesion score was 0.2 compared to 1.5 for a control sample containing petrolatum without an antimicrobial.
substance,measurement,value
propylene glycol monolaurate,day 7 mean lesion score,0.2
same,mean day 7 lesion size,3.1 mm2
same,reduction in lesion score and size compared to a placebo ointment (in words),statistically significant reduction

# — patent publication US20060229364A1, “Antiviral compositions and methods of use” (3M Innovative Properties Company, priority 2005, published 2006)
